Test results as given in patent US7763647B2, “Topical solution containing a chromane or chromene derivative” (Laboratories Expanscience, priority 2001, dated 2010).

Experiments:
[1] = test system: actinic erythema induced by UVA+B irradiation; test: Reduction of actinic erythema induced by UVA+B irradiation, double blind test with placebo, visual reading; type: in vivo, healthy volunteers; conditions: when solubilized beforehand in PEG 300
Method: The placebo (P1) and the active products (P2), (P3) and (P4) were thus used to carry out this test.
Several steps were followed: • Preliminary step: Evaluation of the individual Minimum Erythemal Dose (MEDi). • First step: Application of products P1 to P4 to a 35 cm^2 surface. The quantity applied is exactly 4 mg/cm^2. The zones for applying the products are modified by rotation from one volunteer to another. • Second step: Irradiation of the treated zones and of one untreated zone (control zone) fifteen minutes after application of the products, by positioning the MEDi at the third hole. • Third steps: Visual readings of the erythema 6 and 24 hours after the irradiation. a.) Choice of the Subjects […]
Beforehand, with the same apparatus, the individual MED of each subject was determined on the top of the back. […]
The irradiation times for the treated zones and for the untreated zone are determined so as to place the MEDi at the third hole.
The administered UV doses are calculated with the aid of a calibrated ROBERTSON-BERGER dosimeter equipped with a UVB reading head. The results are expressed directly as values read on the dosimeter and expressed as MED (1 MED=25 mJ/cm^2). […]
A numerical quantification corresponding to the degree of erythema is performed according to the following table: […]

[2] = Tests of solubility of genistein in polyethylene glycols or their ethoxylated homologs (HPLC assay); conditions: for Genistein assayed (% by weight in the solution): room temperature, stirred 30 minutes
Method: Tests of Solubility of Genistein in Polyethylene Glycols or Their Ethoxylated Homologs Procedure:
The quantity of genistein used in powdered form is accurately weighed in a 250 ml beaker. A precise quantity of excipient is then added. The mixture is then vigorously stirred (mechanical stirring) at room temperature for 30 minutes. The product is then directly assayed according to the protocol described below.
The assay of genistein is carried out by reverse phase high-performance liquid chromatography (C18 stationary phase—acetic acid/acetonitrile mobile phase) and detection by UV spectrophotometry (absorption maximum of the compound).

[3] = excipient PEG 200, genistein used 12.0% by weight
[4] = excipient PEG 300, genistein used 8.0% by weight
[5] = excipient PEG 300, genistein used 10.0% by weight
[6] = excipient PEG 300, genistein used 12.0% by weight
[7] = excipient PEG 400, genistein used 12.0% by weight
[8] = excipient PEG 600, genistein used 12.0% by weight

Genistein assayed (% by weight in the solution) ([2]; excipient Laureth 11 (oxyethylenated C12 alcohol), genistein used 12.0% by weight): 9.5 % by weight in the solution | Solubility ([2]; excipient Laureth 11, genistein used 12.0% by weight): high | Genistein assayed (% by weight in the solution) ([2]; excipient Liponic EG1 (ethoxylated glycerol), genistein used 10.0% by weight): 9.1 % by weight in the solution | Solubility ([2]; excipient Liponic EG1, genistein used 10.0% by weight): high | Solubility [2, 3]: high | Genistein assayed (% by weight in the solution) [2, 3]: 10.9 % by weight in the solution | Solubility [2, 4]: high | Genistein assayed (% by weight in the solution) [2, 4]: 7.6 % by weight in the solution | Solubility [2, 5]: high | Genistein assayed (% by weight in the solution) [2, 5]: 9.3 % by weight in the solution | Solubility [2, 6]: high | Genistein assayed (% by weight in the solution) [2, 6]: 11.2 % by weight in the solution | Solubility [2, 7]: high | Genistein assayed (% by weight in the solution) [2, 7]: 10.1 % by weight in the solution | Genistein assayed (% by weight in the solution) ([2]; excipient PEG400 dilaurate (fatty diester of PEG), genistein used 12.0% by weight): 9.5 % by weight in the solution | Solubility ([2]; excipient PEG400 dilaurate, genistein used 12.0% by weight): high | Solubility [2, 8]: high | Genistein assayed (% by weight in the solution) [2, 8]: 10.7 % by weight in the solution
Compound: O=c1c(-c2ccc(O)cc2)coc2cc(O)cc(O)c12 [Genistein]
Antierythemal activity of genistein [1]: increased | Concentration at which genistein can be incorporated, in soluble form, into PEG 300 ([2]; PEG 300): ~12 % by weight relative to the total weight of the solution
